Results from patent US20080293700A1, “Compositions and Methods Relating to Novel Compounds and Targets Thereof” (priority 2004, published 2008).
Where two headings read alike, the source gives them in different places.

Legend:
F1Fo-ATPase = details: cited from earlier work
[1] = target: T1, ATP hydrolytic activity of sub-mitochondrial particles (SMPs), mitochondrial F1Fo-ATPase (Bos taurus, UniProt P13621); experiment: NADH-coupled kinetics assay of ATP hydrolysis by sub-mitochondrial particles; format: biochemical, bovine; details: for Ki: non-competitive (mixed) model; for Km / Vmax: three-dimensional fit
T1 construct: from tissue; host or cells: sub-mitochondrial particles (SMPs)
Experimental: The mechanism of inhibition for ATP hydrolysis induced by Bz-423 and derivatives of Bz-423 was assayed using an NADH-coupled assay. The ATP hydrolytic activity of the sub-mitochondrial particles (hereinafter SMPs) was measured by coupling the production of ADP to the oxidation of NADH via the pyruvate kinase and lactate dehydrogenase reaction. Briefly, ATP hydrolysis SMPs (0.8 mg; 7.14 μg/well) were added to hydrolysis buffer (100 mM Tris-HCl, pH 8.0 at 25° C., 4 mM MgCl2, […], 0.2 mM EDTA) and vortexed. 125 μL of this suspension was added to each well of a 96-well plate containing 50× drug or DMSO vehicle control (1% DMSO, final). The 96-well plate was then placed at 30° C. in a Molecular Devices Versamax tunable microplate reader and allowed to incubate for 5 min. During this 5 min, a substrate-coupling mixture was prepared (containing X mM ATP, 0.2 mM NADH, 1 mM phosphoenolpyruvate (PEP), 2 U/mL pyruvate kinase (PK), and 2 U/mL lactate dehydrogenase (LDH) in hydrolysis buffer). The rate of hydrolysis was assayed over a range of ATP concentrations (0.1-4.0 mM) at each [Bz]. 125 μL of the substrate-coupling mixture was added to each well, and the rate of NADH oxidation was monitored for 10 min at 340 nm, 30° C. The measured decrease in absorbance over time (in OD/min) was converted to μmol ATP hydrolyzed/min/mg SMP (ε=6220). The velocity data was plotted versus [ATP] for each concentration of [Bz] (e.g., 1-8 μM) (see, e.g., FIG. 1) and then fit to the Michaelis-Menten equation:
m1*m0/(1+m0/m2) • where m1=Vmax/Km and m2=Km The apparent kinetic parameters for each [Bz] were obtained from these curve fits to generate secondary plots of [Bz] versus Vmax, [Bz] versus Km, and [Bz] versus Vmax/Km (see, e.g., FIG. 2). The o-tert-Butyl derivative, shown below,
To obtain Ki values and confirm that an uncompetitive model of inhibition was the best fit for the data, three-dimensional fits of the velocity, [ATP], and [Bz] were performed to solve for Vmax, Km, Ki, and Ki* [where Ki indicates Bz binding to the ATPase with the third catalytic site empty (mixed-type inhibition only), and Ki* indicates binding when all three sites have substrate bound (uncompetitive and mixed-type inhibition)]. The following equations were used:
Vo=Vmax[S]/((1+[I]/Ki)Km+[S])
Vo=Vmax[S]/((1+[I]/Ki*) [S]+Km)
Vo=Vmax[S]/((1+[I]/Ki)Km+(1+[I]Ki*)[S])

[2] = binding with third catalytic site empty
[3] = non-competitive (mixed) inhibition model

Row | SMILES | mode of inhibition of the F1Fo-ATPase (F1Fo-ATPase) | mechanism of inhibition of ATP hydrolysis [1] | Ki ([1]; binding when all three sites have substrate bound, read-out: Ki*) [µM] | Ki [1, 2] | Km ([1]; competitive inhibition model) [µM] | Vmax ([1]; competitive inhibition model) | Vmax [1, 3] | Km ([1]; uncompetitive inhibition model) [µM] | Vmax ([1]; uncompetitive inhibition model) | effect on apparent Km ([1]; secondary plot [Bz] versus Km, [Bz] 1-8 μM) | effect on apparent Vmax ([1]; secondary plot [Bz] versus Vmax, [Bz] 1-8 μM) | IC50 (F1Fo-ATPase) [µM]
1 | COC[C@@H](C[C@H]1O[C@@](O)([C@H](O)[C@@H]2C[C@H](OC)[C@@H](O)CC/C=C(C)/C=C/[C@@H](O[C@@H]3O[C@@H](C)[C@H](OC)[C@@H](O)[C@@H]3O)[C@H](C)/C=C(C)/C=C(C)/C=C(\C)C(=O)O2)[C@H](C)[C@@H](O)[C@H]1C)OC1C[C@](C)(O)[C@@H](O[C@H]2C[C@@H](OC)[C@H](O)[C@@H](C)O2)[C@H](C)O1 (some centres unmarked) [apoptolidin] | non-competitive |  |  |  |  |  |  |  |  |  |  | 
2 | CN1C(=O)C(Cc2ccc3ccccc3c2)N=C(c2ccc(O)cc2)c2cc(Cl)ccc21 (centres unmarked) [Bz-423] |  | uncompetitive | 18.9 ± 6.3 | no fit | 400 ± 100 | 2.62 ± 0.9 | 3.37 ± 1.4 | 680 ± 100 | 3.34 ± 1.3 |  |  | 
3 | CN1C(=O)C(Cc2ccc(OC(C)(C)C)cc2)N=C(c2ccc(O)cc2)c2cc(Cl)ccc21 (centres unmarked) [o-tert-Butyl] |  | uncompetitive |  | no fit | 250 ± 20 | 1.25 ± .01 | 1.53 ± .03 | 390 ± 300 | 1.53 ± 0.03 | decreased | decreased | 
4 | CC[C@H]1/C=C/C=C/C[C@@H](C)[C@H](O)[C@@](C)(O)C(=O)[C@@H](C)[C@H](O)[C@@H](C)C(=O)[C@@H](C)[C@H](O)[C@@H](C)/C=C/C(=O)O[C@@H]2[C@H](C)[C@H](CC1)O[C@]1(CC[C@H](C)[C@H](C[C@@H](C)O)O1)[C@H]2C [oligomycin] | non-competitive |  |  |  |  |  |  |  |  |  |  | 0.01
